Experimental data reported in patent publication US10584115B2, “Substituted pyridine and pyrazine BMI-1 inhibitors” (PTC Therapeutics, Inc., priority 2013, dated 2020).

Tested on: Bmi-1 protein
Test: Sandwich ELISA Assay (Bmi-1 protein level in HT-1080 cells after compound treatment)
Type: cell-based
Conditions: Table 1, Bmi-1 sandwich ELISA, read-out: ELISA EC50 value for Bmi-1 protein
Method in brief: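 Sandwich ELISA quantified Bmi-1 protein against recombinant standard (125–8000 pg/mL), with lysates captured overnight at 4 °C and signal by HRP/TMB at 450 nm (570 nm reference). Lysates came from HT-1080 cells incubated 40–48 h with test compounds in 0.5% DMSO.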

Compound	EC50
Fc1cc2nc(C3CC3)n(-c3cncc(Nc4ccc(OC(F)F)cc4)n3)c2cc1F [compound 460, 6-(2-cyclopropyl-5,6-difluoro-1H-benzimidazol-1-yl)-N-[4-(difluoromethoxy)phenyl]pyrazin-2-amine]	10 to 100 nM
N#Cc1cc(Nc2ccc(OC(F)F)c(F)c2)nc(-n2c(C3CC3)nc3c(F)cc(F)cc32)c1 [compound 476, 2-(2-cyclopropyl-4,6-difluoro-1H-benzimidazol-1-yl)-6-{[4-(difluoromethoxy)-3-fluorophenyl]amino}pyridine-4-carbonitrile]	10 to 100 nM
FC(F)Oc1ccc(Nc2cncc(-c3cnc4ccccn34)n2)cc1 [compound 477, N-[4-(difluoromethoxy)phenyl]-6-(imidazo[1,2-a]pyridin-3-yl)pyrazin-2-amine]	100 to 3000 nM
N#Cc1cc(Nc2ccc(C(F)(F)F)cc2)nc(-n2c(C3CC3)nc3ncc(F)cc32)c1 [compound 490, 2-(2-cyclopropyl-6-fluoro-1H-imidazo[4,5-b]pyridin-1-yl)-6-{[4-(trifluoromethyl)phenyl]amino}pyridine-4-carbonitrile]	10 to 100 nM
Cc1nc2cc(F)c(F)cc2n1-c1c[n+]([O-])cc(Nc2ccc(C(F)(F)F)cc2)n1 [compound 495, 6-(5,6-difluoro-2-methyl-1H-benzimidazol-1-yl)-N-[4-(trifluoromethyl)phenyl]pyrazin-2-amine 4-oxide]	10 to 100 nM
Cc1nc2ccccc2n1-c1cc(N)cc(Nc2ccc(OC(F)F)cc2)n1 [compound 496, N^2-[4-(difluoromethoxy)phenyl]-6-(2-methyl-1H-benzimidazol-1-yl)pyridine-2,4-diamine]	10 to 100 nM
Cc1nn2ccccc2c1-c1cncc(Nc2ccc(OC(F)F)cc2)n1 [compound 498, N-[4-(difluoromethoxy)phenyl]-6-(2-methylpyrazolo[1,5-a]pyridin-3-yl)pyrazin-2-amine]	1 to 10 nM
Cc1nc2ccccc2n1-c1cc(F)cc(Nc2ccc(OC(F)F)cc2)n1 [compound 499, N-[4-(difluoromethoxy)phenyl]-4-fluoro-6-(2-methyl-1H-benzimidazol-1-yl)pyridin-2-amine]	10 to 100 nM
Cc1nn2ccccc2c1-c1cncc(Nc2ccc(OC(F)(F)F)cc2)n1 [compound 500, 6-(2-methylpyrazolo[1,5-a]pyridin-3-yl)-N-[4-(trifluoromethoxy)phenyl]pyrazin-2-amine]	10 to 100 nM
Cc1nc2cc(F)c(F)cc2n1-c1cncc(Nc2ccc(C=O)cc2)n1 [compound 502, 4-{[6-(5,6-difluoro-2-methyl-1H-benzimidazol-1-yl)pyrazin-2-yl]amino}benzaldehyde]	10 to 100 nM
CCc1nc2cc(F)c(F)cc2n1-c1cc(N)cc(Nc2ccc(C(F)(F)F)cc2)n1 [compound 503, 6-(2-ethyl-5,6-difluoro-1H-benzimidazol-1-yl)-N^2-[4-(trifluoromethyl)phenyl]pyridine-2,4-diamine]	10 to 100 nM
Nc1cc(Nc2ccc(C(F)(F)F)cc2)nc(-n2c(C3CC3)nc3cc(F)c(F)cc32)c1 [compound 504, 6-(2-cyclopropyl-5,6-difluoro-1H-benzimidazol-1-yl)-N^2-[4-(trifluoromethyl)phenyl]pyridine-2,4-diamine]	10 to 100 nM
Cc1nc2cc(F)c(F)cc2n1-c1cc(N)c(F)c(Nc2ccc(C(F)(F)F)cc2)n1 [compound 505, 6-(5,6-difluoro-2-methyl-1H-benzimidazol-1-yl)-3-fluoro-N^2-[4-(trifluoromethyl)phenyl]pyridine-2,4-diamine]	10 to 100 nM
Cc1nc2ccccc2n1-c1cncc(Nc2ccc(C(F)(F)F)c(N)c2)n1 [compound 506, N^1-[6-(2-methyl-1H-benzimidazol-1-yl)pyrazin-2-yl]-4-(trifluoromethyl)benzene-1,3-diamine]	10 to 100 nM
Cc1nc2ccccc2n1-c1cncc(Nc2ccc(C(F)F)cc2)n1 [compound 507, N-[4-(difluoromethyl)phenyl]-6-(2-methyl-1H-benzimidazol-1-yl)pyrazin-2-amine]	10 to 100 nM
Cc1nc2ccccc2n1-c1cncc(Nc2ccc(C(F)F)c(F)c2)n1 [compound 508, N-[4-(difluoromethyl)-3-fluorophenyl]-6-(2-methyl-1H-benzimidazol-1-yl)pyrazin-2-amine]	10 to 100 nM
CCc1nc2cc(F)c(F)cc2n1-c1cc(N)c(F)c(Nc2ccc(C(F)(F)F)cc2)n1 [compound 509, 6-(2-ethyl-5,6-difluoro-1H-benzimidazol-1-yl)-3-fluoro-N^2-[4-(trifluoromethyl)phenyl]pyridine-2,4-diamine]	10 to 100 nM
CCc1nc2ccccc2n1-c1cc(N)cc(Nc2ccc(C(F)(F)F)cc2)n1 [compound 510, 6-(2-ethyl-1H-benzimidazol-1-yl)-N^2-[4-(trifluoromethyl)phenyl]pyridine-2,4-diamine]	10 to 100 nM

Compound	EC50
Cc1nn2ccccc2c1-c1cc(C#N)cc(Nc2ccc(OC(F)F)cc2)n1 [compound 512, 2-{[4-(difluoromethoxy)phenyl]amino}-6-(2-methylpyrazolo[1,5-a]pyridin-3-yl)pyridine-4-carbonitrile]	10 to 100 nM
Cc1nn2ccccc2c1-c1cc(C#N)cc(Nc2ccc(OC(F)F)c(F)c2)n1 [compound 513, 2-{[4-(difluoromethoxy)-3-fluorophenyl]amino}-6-(2-methylpyrazolo[1,5-a]pyridin-3-yl)pyridine-4-carbonitrile]	10 to 100 nM
Cc1nn2ccccc2c1-c1cc(C#N)cc(Nc2ccc(OC(F)(F)F)cc2)n1 [compound 514, 2-(2-methylpyrazolo[1,5-a]pyridin-3-yl)-6-{[4-(trifluoromethoxy)phenyl]amino}pyridine-4-carbonitrile]	100 to 3000 nM
Cc1nc2ccccc2n1-c1cc(N)c(F)c(Nc2ccc(C(F)(F)F)cc2)n1 [compound 515, 3-fluoro-6-(2-methyl-1H-benzimidazol-1-yl)-N^2-[4-(trifluoromethyl)phenyl]pyridine-2,4-diamine]	10 to 100 nM
Cc1nc2cc(F)c(F)cc2n1-c1c[n+]([O-])cc(Nc2ccc(OC(F)F)cc2)n1 [compound 516, N-[4-(difluoromethoxy)phenyl]-6-(5,6-difluoro-2-methyl-1H-benzimidazol-1-yl)pyrazin-2-amine 4-oxide]	10 to 100 nM
Cc1nc2ccccc2n1-c1cncc(Nc2ccc(C(F)(F)F)c(C#N)c2)n1 [compound 517, 5-{[6-(2-methyl-1H-benzimidazol-1-yl)pyrazin-2-yl]amino}-2-(trifluoromethyl)benzonitrile]	100 to 3000 nM
Cc1nc2ccccc2n1-c1cncc(Nc2ccc(C(F)(F)F)c(CO)c2)n1 [compound 519]	10 to 100 nM
CCc1nn2ccccc2c1-c1cncc(Nc2ccc(C(F)(F)F)cc2)n1 [compound 520, 6-(2-ethylpyrazolo[1,5-a]pyridin-3-yl)-N-[4-(trifluoromethyl)phenyl]pyrazin-2-amine]	1 to 10 nM
CCc1nn2ccccc2c1-c1cncc(Nc2ccc(OC(F)F)cc2)n1 [compound 521, N-[4-(difluoromethoxy)phenyl]-6-(2-ethylpyrazolo[1,5-a]pyridin-3-yl)pyrazin-2-amine]	1 to 10 nM
CCc1nn2ccccc2c1-c1cncc(Nc2ccc(OC(F)F)c(F)c2)n1 [compound 522, N-[4-(difluoromethoxy)-3-fluorophenyl]-6-(2-ethylpyrazolo[1,5-a]pyridin-3-yl)pyrazin-2-amine]	10 to 100 nM
CCc1nn2ccccc2c1-c1cncc(Nc2ccc(OC(F)(F)F)cc2)n1 [compound 523, 6-(2-ethylpyrazolo[1,5-a]pyridin-3-yl)-N-[4-(trifluoromethoxy)phenyl]pyrazin-2-amine]	10 to 100 nM
Cc1nc2ccccc2n1-c1cncc(Nc2ccc(C(F)(F)F)c(CN)c2)n1 [compound 524, N-[3-(aminomethyl)-4-(trifluoromethyl)phenyl]-6-(2-methyl-1H-benzimidazol-1-yl)pyrazin-2-amine]	100 to 3000 nM
Cc1nc2ccccc2n1-c1c[n+]([O-])cc(Nc2ccc(C(F)(F)F)cc2)n1 [compound 525, 6-(2-methyl-1H-benzimidazol-1-yl)-N-[4-(trifluoromethyl)phenyl]pyrazin-2-amine 4-oxide]	10 to 100 nM
CCc1nn2ccccc2c1-c1cc(C#N)cc(Nc2ccc(C(F)(F)F)cc2)n1 [compound 526, 2-(2-ethylpyrazolo[1,5-a]pyridin-3-yl)-6-{[4-(trifluoromethyl)phenyl]amino}pyridine-4-carbonitrile]	10 to 100 nM
CCc1nn2ccccc2c1-c1cc(C#N)cc(Nc2ccc(OC(F)F)cc2)n1 [compound 527, 2-{[4-(difluoromethoxy)phenyl]amino}-6-(2-ethylpyrazolo[1,5-a]pyridin-3-yl)pyridine-4-carbonitrile]	10 to 100 nM
CCc1nn2ccccc2c1-c1cc(C#N)cc(Nc2ccc(OC(F)F)c(F)c2)n1 [compound 528, 2-{[4-(difluoromethoxy)-3-fluorophenyl]amino}-6-(2-ethylpyrazolo[1,5-a]pyridin-3-yl)pyridine-4-carbonitrile]	10 to 100 nM
CCc1nn2ccccc2c1-c1cc(C#N)cc(Nc2ccc(OC(F)(F)F)cc2)n1 [compound 529, 2-(2-ethylpyrazolo[1,5-a]pyridin-3-yl)-6-{[4-(trifluoromethoxy)phenyl]amino}pyridine-4-carbonitrile]	100 to 3000 nM

Same assay, conditions: read-out: ELISA EC50 value for Bmi-1 protein, Table 1, Bmi-1 sandwich ELISA

Compound	EC50
Cc1nc2ccccc2n1-c1ccc(N)c(Nc2ccc(C(F)(F)F)cc2)n1 [compound 465, 6-(2-methyl-1H-benzimidazol-1-yl)-N^2-[4-(trifluoromethyl)phenyl]pyridine-2,3-diamine]	100 to 3000 nM
Cc1nn2ccccc2c1-c1cncc(Nc2ccc(C(F)(F)F)cc2)n1 [compound 497, 6-(2-methylpyrazolo[1,5-a]pyridin-3-yl)-N-[4-(trifluoromethyl)phenyl]pyrazin-2-amine]	1 to 10 nM
Cc1nn2ccccc2c1-c1cc(C#N)cc(Nc2ccc(C(F)(F)F)cc2)n1 [compound 511, 2-(2-methylpyrazolo[1,5-a]pyridin-3-yl)-6-{[4-(trifluoromethyl)phenyl]amino}pyridine-4-carbonitrile]	10 to 100 nM
